Experimental data published in patent US6274146A, “Biologically active phytogenous proteoglycan and a method of making thereof” (priority 1999, dated 2001).

System: 1-st type of simple virus herpes, Kleiman strain
Experiment: Herpetic meningoencephalitis model in mice
Assay type: in vivo, white mice
Conditions: for Lethality rate / ML (mean lifespan) / Protective effect (difference between survival rates in experimental and control groups) / Survival rate: introduced 3, 24, 48, 72 and 96 h after infecting
Description: Proteoglycan efficiency was estimated by means of herpetic menigeoencephalitis model in mice. The 1-st type of simple virus herpes of Kleiman strained was used. The virus infectuous titer in Vero cells culture was of 6.5-7.01 1 g CPA50^1 /0.1 ml while by intracerebral or intraperitonneal introduction in white mice mass of 7-8 g it was equal to 5.5-6.0 1 g LD50 /0.03 ml. The strain is characterized by increased neurovirulence. The maximum lesion of cells of fibroblasts in hen embryons or of Vero cells (75-100%) was already observed in 18-20 h after infecting. To reproduce herpetic meningoencephalitis in mice the latter were infected with Kleiman virus intraperitonneally in volume of 0.2 ml of both 10 and 100 LD50 doses. The treatment results were estimated as a mean lifespan (ML) and the protective effect which is difference between survival rates in experimental and control groups.
*-proteoglycan was introduced 5 days before infecting
**-proteoglycan was introduced 5 days until infecting and 3 h after the
** Acyclovir was introduced in 3, 24, 48, 72 and 96 h after the infecting.

For `Nc1nc2c(ncn2COCCO)c(=O)[nH]1` [Acyclovir], the Lethality rate (10 LD50 virus dose) was 68%, the “ML (mean lifespan)” value (10 LD50 virus dose) was 7.81 ± 1.9 days and the “Protective effect (difference between survival rates in experimental and control groups)” value (10 LD50 virus dose) was 15%. For the same molecule, the Survival rate (10 LD50 virus dose) was 32%, the Effect observed (100 LD50 virus dose) was “no effect was observed” and the Lethality rate (100 LD50 virus dose) was 100%. For the same molecule, the “ML (mean lifespan)” value (100 LD50 virus dose) was 5.3 ± 1.8 days, the “Protective effect (difference between survival rates in experimental and control groups)” value (100 LD50 virus dose) was 0% and the Survival rate (100 LD50 virus dose) was 0%.
